Calls of active or inactive are those of the source. The rule behind the calls is not given here.

Assay [1] addresses Phosphoserine phosphatase SerB2 (Mycobacterium tuberculosis) (UniProt O53289). Description: Inhibition of Mycobacterium tuberculosis SerB2 expressed in Escherichia coli BL21 at 1 mM incubated for 10 mins by malachite green dye based phosphatase assay.
For assay [2] the target is unchanged. Description: Binding affinity to Mycobacterium tuberculosis SerB2 expressed in Escherichia coli BL21 (DE3) cells assessed as change in melting temperature at 4 mM by differential scanning fluorimetry. For orientation: DSF heats the sample and reads unfolding from a dye or from intrinsic fluorescence.
The target is the same in assay [3]. Description: Inhibition of Mycobacterium tuberculosis SerB2 expressed in Escherichia coli BL21 at 1 mM incubated for 10 mins by malachite green dye based phosphatase assay relative to control.
For assay [4] the target is unchanged. Description: Binding affinity to Mycobacterium tuberculosis SerB2 expressed in Escherichia coli BL21 (DE3) cells assessed as protein destabilization at 4 mM by differential scanning fluorimetry.

Chain of Phosphoserine phosphatase SerB2 (Mycobacterium tuberculosis) (O53289 whole entry): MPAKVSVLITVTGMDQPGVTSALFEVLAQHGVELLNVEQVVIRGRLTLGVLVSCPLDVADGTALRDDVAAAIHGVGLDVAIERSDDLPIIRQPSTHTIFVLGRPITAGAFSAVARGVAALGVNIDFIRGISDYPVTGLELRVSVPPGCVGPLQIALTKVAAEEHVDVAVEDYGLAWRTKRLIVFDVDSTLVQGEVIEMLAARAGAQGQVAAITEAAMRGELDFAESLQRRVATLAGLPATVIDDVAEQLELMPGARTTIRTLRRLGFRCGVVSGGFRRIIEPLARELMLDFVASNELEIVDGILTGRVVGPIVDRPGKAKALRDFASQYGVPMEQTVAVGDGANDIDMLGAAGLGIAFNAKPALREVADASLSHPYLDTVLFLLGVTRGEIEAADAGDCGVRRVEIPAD

As to `NCCCP(=O)(O)O`, the inhibition (in general, the share of the control response that was lost under treatment) in assay [1] is “Active”.

For the molecule `O=C(NO)Nc1ccc(Cl)cc1Cl`, in assay [2], the ΔTm (in general, the change in melting temperature against a reference sample) was over 0.5 °C. Also, the inhibition in assay [3] is over 50%. Moreover, the result in assay [4] was Active.

For the molecule `c1c[nH]cn1`, the inhibition result in assay [1] is “Active”.

Consider `c1ccc(-c2c[nH]cn2)cc1`, for which the ΔTm in assay [2] is over 0.5 °C. The result in assay [4] was Active.

On to `NC(=O)NO`, for which the ΔTm in assay [2] is over 0.5 °C. Further, the inhibition entry in assay [1] was “Active”. Also, in assay [4], the outcome was Active.

With `N[C@@H](CCS(=O)(=O)O)C(=O)O`, in assay [2], the ΔTm is over 0.5 °C. In assay [4], the result was Active.

For `O=P(O)(O)C(O)(Cn1ccnc1)P(=O)(O)O`, the shift in melting temperature (ΔTm) in assay [2] was over 0.5 °C. In addition, in assay [3], the inhibition was over 50%. The result in assay [4] was Active.

Turning to `Cc1cc(C2CCCCC2)n(O)c(=O)c1`, the thermal shift (ΔTm) in assay [2] is over 0.5 °C. Moreover, in assay [4], the outcome was Active.

`Nc1ccncc1`: in assay [2], the thermal shift (ΔTm) is over 0.5 °C. Further, the outcome in assay [4] was Active.

In the case of `O=C(O)c1cc(O)ccn1`, the ΔTm in assay [2] was over 0.5 °C. In addition, the inhibition in assay [3] is over 50%. Also, in assay [4], the outcome was Active.

With `CCC(N)P(=O)(O)O` (configuration not stated), the inhibition result in assay [1] is “Active”.

Take `Nc1ccc(O)cc1`: the ΔTm in assay [2] was over 0.5 °C. The inhibition in assay [3] was over 50%. The result in assay [4] was inactive.

On to `Nc1ccc(C(=O)O)c(O)c1`, for which the inhibition entry in assay [1] was “Active”.
